Data as given in patent US20110136854A1, “NOVEL 9-AZA-BICYCLO[3.3.1]NON-3-YLOXY CHROMEN-2-ONE DERIVATIVES AND THEIR USE AS MONOAMINE NEUROTRANSMITTER RE-UPTAKE INHIBITORS” (NeuroSearch A/S, priority 2008, published 2011).
Counter-ions that a name gives are not always drawn. Like-named read-outs stand apart in the source and are kept apart here.

Key:
Assay type in all cases: biochemical
[1] = target: T1, reuptake of dopamine (DA) in synaptosomes (Rattus norvegicus, UniProt P23977); assay: Inhibition of DA reuptake in synaptosomes; settings: 3H-DA, read-out: DA-uptake IC50
T1 construct: in synaptosomes as described in WO 97/16451; from tissue
T1 sequence (P23977 whole entry): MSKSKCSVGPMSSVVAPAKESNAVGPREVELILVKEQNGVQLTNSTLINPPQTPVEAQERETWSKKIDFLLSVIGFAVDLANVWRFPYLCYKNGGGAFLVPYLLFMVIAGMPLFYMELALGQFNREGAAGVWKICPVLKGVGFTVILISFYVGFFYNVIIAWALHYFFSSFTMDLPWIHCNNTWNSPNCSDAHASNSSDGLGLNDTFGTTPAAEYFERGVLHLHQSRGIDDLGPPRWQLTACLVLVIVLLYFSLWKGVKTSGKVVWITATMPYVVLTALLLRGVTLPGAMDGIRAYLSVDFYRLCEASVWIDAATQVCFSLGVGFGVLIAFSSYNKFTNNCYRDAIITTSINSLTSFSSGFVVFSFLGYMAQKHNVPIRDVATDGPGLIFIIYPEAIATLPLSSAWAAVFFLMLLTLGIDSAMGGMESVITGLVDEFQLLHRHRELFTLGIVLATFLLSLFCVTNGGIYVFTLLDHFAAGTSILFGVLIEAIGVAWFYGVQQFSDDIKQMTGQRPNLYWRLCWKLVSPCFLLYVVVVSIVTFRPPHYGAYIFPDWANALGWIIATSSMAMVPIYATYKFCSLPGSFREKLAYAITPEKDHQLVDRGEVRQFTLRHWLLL
Excerpt: (§1) Compounds of the invention may be tested for their ability to inhibit reuptake of the monoamines dopamine, noradrenaline and serotonin in synaptosomes e.g. such as described in WO 97/30997 (NeuroSearch NS) or WO 97/16451 (NeuroSearch A/S). Based on the balanced activity observed in these tests the compound of the invention is considered useful for the treatment, prevention or alleviation of a disease or a disorder or a condition of a mammal, including a human, which disease, disorder or condition is responsive to inhibition of monoamine neurotransmitter re-uptake in the central nervous system.
(§2) Compounds were tested for their ability to inhibit the reuptake of the mono-amine neurotransmitters dopamine (DA) noradrenaline (NA) and serotonine (5-HT) in synaptosomes as described in WO 97/16451 (NeuroSearch NS).
(§3) The test values are given as IC50 (the concentration (μM) of the test substance which inhibits the specific binding of ^3H-DA, ^3H-NA, or ^3H-5-HT by 50%).

[2] = target: T2, reuptake of serotonine (5-HT) in synaptosomes (Rattus norvegicus, UniProt P31652); assay: Inhibition of 5-HT reuptake in synaptosomes
T2 construct: serotonine (5-HT) in synaptosomes as described in WO 97/16451; from tissue
T2 sequence (P31652 whole entry): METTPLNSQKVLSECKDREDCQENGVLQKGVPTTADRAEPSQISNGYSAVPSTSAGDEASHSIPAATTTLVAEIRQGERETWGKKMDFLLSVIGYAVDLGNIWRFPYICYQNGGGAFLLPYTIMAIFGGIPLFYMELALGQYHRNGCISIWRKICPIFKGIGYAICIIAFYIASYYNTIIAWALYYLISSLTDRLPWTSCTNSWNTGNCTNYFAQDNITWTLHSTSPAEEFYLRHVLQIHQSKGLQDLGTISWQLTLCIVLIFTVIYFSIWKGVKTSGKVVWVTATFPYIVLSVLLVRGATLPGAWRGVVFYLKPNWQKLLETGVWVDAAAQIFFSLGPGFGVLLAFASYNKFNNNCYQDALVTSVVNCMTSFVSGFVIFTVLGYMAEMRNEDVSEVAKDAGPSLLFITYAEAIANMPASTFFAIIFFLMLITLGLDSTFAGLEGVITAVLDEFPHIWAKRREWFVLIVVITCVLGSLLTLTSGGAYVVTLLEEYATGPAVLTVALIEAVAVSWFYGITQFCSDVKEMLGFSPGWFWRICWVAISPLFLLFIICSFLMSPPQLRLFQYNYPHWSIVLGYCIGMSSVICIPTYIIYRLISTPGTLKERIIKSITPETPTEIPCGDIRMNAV
Excerpt: as §1, §2, §3

[3] = target: T3, reuptake of noradrenaline (NA) in synaptosomes (Rattus norvegicus, UniProt Q63380); assay: Inhibition of NA reuptake in synaptosomes
T3 construct: in synaptosomes as described in WO 97/16451; from tissue
T3 sequence (Q63380 1-617): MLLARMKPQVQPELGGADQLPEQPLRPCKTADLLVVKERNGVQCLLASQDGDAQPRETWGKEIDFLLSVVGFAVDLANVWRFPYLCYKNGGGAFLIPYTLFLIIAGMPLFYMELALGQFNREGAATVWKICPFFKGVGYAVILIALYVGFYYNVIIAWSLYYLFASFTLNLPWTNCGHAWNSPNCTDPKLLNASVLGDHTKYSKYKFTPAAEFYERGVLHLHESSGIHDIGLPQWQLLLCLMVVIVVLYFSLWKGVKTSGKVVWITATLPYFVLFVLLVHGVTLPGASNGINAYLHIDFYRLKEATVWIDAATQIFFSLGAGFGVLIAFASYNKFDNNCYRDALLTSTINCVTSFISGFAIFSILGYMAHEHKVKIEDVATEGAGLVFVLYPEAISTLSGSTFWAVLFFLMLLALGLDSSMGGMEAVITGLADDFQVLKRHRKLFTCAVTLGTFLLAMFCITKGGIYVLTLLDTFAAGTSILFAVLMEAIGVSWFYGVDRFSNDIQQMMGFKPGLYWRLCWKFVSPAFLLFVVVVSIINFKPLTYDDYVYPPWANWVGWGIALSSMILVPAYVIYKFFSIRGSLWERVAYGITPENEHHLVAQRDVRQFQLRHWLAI
Excerpt: as §1, §2, §3

O=c1ccc2ccc(O[C@@H]3C[C@H]4CCC[C@@H](C3)N4)cc2o1 [Compound A1, exo-7-(9-Aza-bicyclo[3.3.1]non-3-yloxy)-chromen-2-one hydrochloric acid salt]
IC50 [1]: 240 nM
IC50 [2]: 1.3 nM
IC50 [3]: 76 nM

CN1[C@@H]2CCC[C@H]1C[C@H](Oc1ccc3ccc(=O)oc3c1)C2 [Compound A2, exo-7-(9-Methyl-9-aza-bicyclo[3.3.1]non-3-yloxy)-chromen-2-one hydrochloric acid salt]
IC50 [1]: 150 nM
IC50 [2]: 2.9 nM
IC50 ([3]; synaptosomes, 3H-NA, read-out: NA-uptake IC50): 270 nM
